Read-outs that look alike come from different tables or passages of the source. Marks after values point to notes of the source that are not given here.
How the values were obtained:
[1] = tested on: S. aureus-induced arthritis
Protocol: NMRI mice of both sexes, 6-8 weeks old, were obtained from B&K Universal AB (Stockholm, Sweden). They were housed in the animal facility of the Department of Rheumatology, University of Göteborg, under standard conditions of light and temperature and fed standard laboratory chow and water ad libitum.
S. aureus LS-1 strain was originally isolated from a swollen joint of a spontaneously arthritic NZB/W mouse. The bacteria were cultured for […] on blood agar plates, replated for another 24 h, washed and kept frozen at −20° C. in PBS containing 5% bovine serum albumin ([…]) and 10% dimethyl sulfoxide ([…]) until used. Before use, the bacterial solution was thawed and washed in PBS. Viable count was done to check the number of bacteria in each bacterial solution mice were given i.v. injections (in the tail vein) of 0.2 ml of bacterial solution
All the mice were monitored individually. Their limbs were inspected visually every day during the experiment. Arthritis was defined as visible joint erytbema and/or swelling of at least one joint. To evaluate the intensity of arthritis, a clinical scoring system of 0 to 3 points for each limb was used (1 point, mild swelling and/or erytema; 2 points, moderate swelling and erythema; 3 points, marked swelling and erytema). The arthritic index was constructed by adding the scores from all four limbs for each animal. Previous study has shown that there is a good correlation between the clinical and histopathological appearance of arthritis. The overall condition of each mouse was evaluated by assessing its weight, general appearance, alertness, and skin abnormalities.

TNF [2] = type: cell-based, NMRI mice; details: 24 h supernatant, mean ± SEM
Protocol: Spleens were obtained from healthy NMRI mice. […] The cells (2×10^61/Ml) were cultured in Iscove's complete medium (10% FCS, 5×10^−5 M 2-mercaptoethanol, 2 mM L-glutamine, and 50 μg/ml gentamicin). […] To determine the proliferative response, the cells were cultured in 96-well plates (Nunc) for 3 days. The cultures were pulsed with 1 μCi of (^3H)TdR (Amersham, Bucks, UK) 12 h before harvest and calculation of TdR uptake in a beta counter. The levels of TNF.- were determined using sandwich enzyme-linked immunosorbent assays (ELISA) kit from R&D Systems Minneapolis, Minn.).

spleen mononuclear cells [3] = type: cell-based, NMRI mice; details: spleen cells from naive mice, etoposide 1, 10, 100 μM; FIG. 2
spleen mononuclear cells [4] = type: cell-based, NMRI mice; details: spleen cells from non-infected mice treated once a day for three days vs controls; FIG. 3
MIP-1α = assay: Serum MIP-1α in CII immunized mice (ELISA); type: in vivo, B10.QxDBA/1 female mice; details: serum at end of experiment, mean ± SEM
Protocol: (§1) Levels of TNF, IL-1b, RANTES, and macrophage inflammatory protein (MIP)-1α were determined using sandwich ELISA from R&D Systems (Minneapolis, Minn.).

peripheral leukocytes = assay: Hematological analyses in CII immunized mice; type: in vivo, B10.QxDBA/1 female mice
Protocol: Mice were bled from the tail into heparinized tubes at different time-points. The leukocytes were counted in a hemacytometer (Toa Medical Electronics, Kobe, Japan). Fifty microliters of the heparinized blood was analyzed in a FACScan cytometer (Becton Dickinson, San Jose, Calif.) to determine the percentages of lymphocytes, granulocytes, and monocytes. The absolute numbers of different leukocyte subsets were then calculated from the total leukocyte counts.

IL-6 = type: cell-based; details: spleen cells of mice given 12.5 mg/kg 4 days a week for 4 weeks; mean ± SEM, 4 mice
TNF-α = type: cell-based; details: spleen cells of mice given 12.5 mg/kg 4 days a week for 4 weeks; mean ± SEM, 4 mice
TNF [5] = assay: TNF release by IC-21 macrophage cell line; type: cell-based, murine
Protocol: as §1
These cells display many typical features of the macrophage phenotype and are therefore a suitable model for studying cytoline and chemokine release during inflammation (16). The cells were maintained in continous culture using RPMI-1640 supplemented with 10% FCS, L-glutamine, and gentamycin. When the cells had grown to about 70% confluency, they were seeded into a 24-well-plate (Nunc) at a concentration of 1×10^5 per well and incubated at 37° C. in 5% CO2 for 24 h. […] After 24 h of incubation, the cells were washed once with PBS, and reincubated with medium containing different concentrations (1, 10, 100, 1000 ng/ml) of LPS (Difco) and IFN-γ (10, 50, 100 u/nml). The interferon-γ was purified from the supernatants from Chinese hanater ovary (CHO) cells transfected with the murine IFN-γ gene (hybridoma kindly provided by Dr. Morris, Department of Biological Sciences, University of Warwick, Coventry, UK). After 2 and 24 h of incubation the supernatants were collected and stored at −20° C. until analysis.

[6] = Etoposide-pretreated, Day-2 (prior to experiment, baseline)
[7] = Etoposide-treated (from day 40), Day 61
[8] = Etoposide-treated (from day 40), Day-2 (baseline)

For `COc1cc([C@@H]2c3cc4c(cc3[C@@H](O[C@@H]3O[C@@H]5CO[C@@H](C)O[C@H]5[C@H](O)[C@H]3O)[C@H]3COC(=O)[C@H]23)OCO4)cc(OC)c1O` [Etoposide], the Mortality ([1]; 1-2×10^7 CFU S. aureus, starting four days after inoculation, FIG. 1B) was “higher mortality than the controls”, the Weight loss ([1]; S. aureus infected mice vs controls, data not shown) was “more prominent” and the “Frequency of clinical signs of arthritis” value ([1]; six days after inoculation, 1-2×10^7 CFU S. aureus, controls 70%) was 35%. For the same compound, the Mice died ([1]; suboptimal dose of bacteria 1×10^6 CFU, 8 days after inoculation, controls 1 out of 10) was 6 out of 10, the “TNF, ConA stimulated” value (TNF [2]; etoposide 1 μM, four mice) was 167 ± 29 pg/mL and the “TNF, TSST-1 stimulated” value (TNF [2]; etoposide 1 μM, four mice) was 64 ± 20 pg/mL. The “TNF, ConA stimulated” value (TNF [2]; etoposide 10 μM) was 66 ± 19^b pg/ml, the “TNF, TSST-1 stimulated” value (TNF [2]; etoposide 10 μM) was 38 ± 8^b pg/ml and the “TNF, ConA stimulated” value (TNF [2]; etoposide 100 μM) was 10 ± 1^b pg/ml. The “TNF, TSST-1 stimulated” value (TNF [2]; etoposide 100 μM) was 16 ± 3^b pg/ml, the “Proliferative responses to Con A and TSST-1” value (spleen mononuclear cells [3]) was “significantly decreased upon increasing concentrations” and the “Proliferative response, Con A stimulated” value (spleen mononuclear cells [4]) was “not when stimulated with Con A”. For the same compound, the “Proliferative response, TSST-1 stimulated” value (spleen mononuclear cells [4]) was “lower proliferative response”, the MIP-1a (MIP-1α; Etoposide-pretreated) was 3.0 ± 0.5^c pg/ml and the MIP-1a (MIP-1α; Etoposide-treated (from day 40)) was 2.9 ± 0.3^c pg/ml. The Granulocytes (peripheral leukocytes; Etoposide-pretreated, Day 61) was 698 ± 341^b × 10^4/ml, the Lymphocytes (peripheral leukocytes; Etoposide-pretreated, Day 61) was 7.1 ± 3.4 × 10^6/ml and the Monocytes (peripheral leukocytes; Etoposide-pretreated, Day 61) was 67 ± 20 × 10^4/ml. For the same compound, the Granulocytes (peripheral leukocytes; [6]) was 71 ± 13 × 10^4/ml, the Lymphocytes (peripheral leukocytes; [6]) was 4.7 ± 0.3 × 10^6/ml and the Monocytes (peripheral leukocytes; [6]) was 18 ± 4 × 10^4/ml. For the same compound, the Granulocytes (peripheral leukocytes; [7]) was 991 ± 326^b × 10^4/ml, the Lymphocytes (peripheral leukocytes; [7]) was 14.3 ± 3.3^b × 10^6/ml and the Monocytes (peripheral leukocytes; [7]) was 92 ± 24^a × 10^4/ml. For the same compound, the Granulocytes (peripheral leukocytes; [8]) was 87 ± 20 × 10^4/ml, the Lymphocytes (peripheral leukocytes; [8]) was 5.9 ± 0.8 × 10^6/ml and the Monocytes (peripheral leukocytes; [8]) was 19 ± 3 × 10^4/ml. The “IL-6, Con A” value (IL-6) was 74 ± 15^a) pg/ml, the “IL-6, TSST-1” value (IL-6) was 10 ± 3 pg/mL and the “TNF-α, Con A” value (TNF-α) was 6 ± 0.5^a) pg/ml. The “TNF-α, TSST-1” value (TNF-α) was 6 ± 0.4^a) pg/ml, the “Levels of TNF in supernatants” value (TNF [5]; etoposide 0.01 μM 24 h, then IFN-γ 10 u/ml 24 h) was 52 pg/mL and the “Levels of TNF in supernatants” value (TNF [5]; etoposide 0.01 μM 24 h, then IFN-γ 50 u/ml 24 h) was 56 pg/mL. For the same compound, the “Levels of TNF in supernatants” value (TNF [5]; etoposide 0.01 μM 24 h, then IFN-γ 100 u/ml 24 h) was 65 pg/mL, the “Levels of TNF in supernatants” value (TNF [5]; etoposide 0.01 μM 24 h, then LPS 0 ng/ml 24 h) was 66 pg/mL and the “Levels of TNF in supernatants” value (TNF [5]; etoposide 0.01 μM 24 h, then LPS 1 ng/ml 24 h) was 207 pg/mL. For the same compound, the “Levels of TNF in supernatants” value (TNF [5]; etoposide 0.01 μM 24 h, then LPS 10 ng/ml 24 h) was 3050 pg/mL, the “Levels of TNF in supernatants” value (TNF [5]; etoposide 0.01 μM 24 h, then LPS 100 ng/ml 24 h) was 11900 pg/mL and the “Levels of TNF in supernatants” value (TNF [5]; etoposide 0.01 μM 24 h, then LPS 1000 ng/ml 24 h) was 12375 pg/mL. For the same compound, the “Levels of TNF in supernatants” value (TNF [5]; etoposide 0.1 μM 24 h, then IFN-γ 10 u/ml 24 h) was 20 pg/mL, the “Levels of TNF in supernatants” value (TNF [5]; etoposide 0.1 μM 24 h, then IFN-γ 50 u/ml 24 h) was 32 pg/mL and the “Levels of TNF in supernatants” value (TNF [5]; etoposide 0.1 μM 24 h, then IFN-γ 100 u/ml 24 h) was 34 pg/mL. For the same compound, the “Levels of TNF in supernatants” value (TNF [5]; etoposide 0.1 μM 24 h, then LPS 0 ng/ml 24 h) was 24 pg/mL, the “Levels of TNF in supernatants” value (TNF [5]; etoposide 0.1 μM 24 h, then LPS 1 ng/ml 24 h) was 72 pg/mL and the “Levels of TNF in supernatants” value (TNF [5]; etoposide 0.1 μM 24 h, then LPS 10 ng/ml 24 h) was 1125 pg/mL. The “Levels of TNF in supernatants” value (TNF [5]; etoposide 0.1 μM 24 h, then LPS 100 ng/ml 24 h) was 2325 pg/mL and the “Levels of TNF in supernatants” value (TNF [5]; etoposide 0.1 μM 24 h, then LPS 1000 ng/ml 24 h) was 3650 pg/mL.

From patent publication US20030148963A1 (priority 2000, published 2003)
